# ChEMBL document CHEMBL4411282, “Fragment-based drug discovery of triazole inhibitors to block PDEδ-RAS protein-protein interaction” (Eur J Med Chem, 2019)
# pIC50: −log10 of the molar value.
# System: A549
# Assay: Antiproliferative activity against human A549 cells harboring KRAS G12S point mutant after 72 hrs by SRB assay
# Settings: A549, 72 h
row,pIC50,SMILES
1,< 4.30,COc1ccc(CCc2nnc(-c3ccc(OC(C)(C)C(=O)Nc4cnn(C)c4)cc3)n2Cc2ccccc2)cc1
2,4.69,CC(C)Cc1nnc(SCc2ccc(C(=O)Nc3cccc(F)c3)cc2)n1Cc1ccccc1
3,4.44,COc1ccc(CSc2nnc(-c3ccc(OCC(=O)Nc4cnn(C)c4)cc3)n2Cc2ccccc2)cc1
4,4.71,COc1ccc(CSc2nnc(-c3ccc(OCC(=O)NC4CCCCC4)cc3)n2Cc2ccccc2)cc1
5,4.95,COc1ccc(CSc2nnc(-c3ccc(OCC(=O)Nc4cccnc4)cc3)n2Cc2ccccc2)cc1
6,4.62,COc1ccc(CCc2nnc(-c3ccc(OCC(=O)Nc4cnn(C)c4)cc3)n2Cc2ccccc2)cc1
7,4.99,CC(C)Cc1nnc(SCc2ccc(C(=O)Nc3ccc4ncccc4c3)cc2)n1Cc1ccccc1
8,4.74,COc1ccc(CSc2nnc(-c3ccc(OCC(=O)Nc4cc(C)nn4C)cc3)n2Cc2ccccc2)cc1
9,4.77,COc1ccc(CSc2nnc(-c3ccc(OCC(=O)Nc4ccc(N(C)C)cc4)cc3)n2Cc2ccccc2)cc1
10,< 4.30,CCC(Oc1ccc(-c2nnc(CCc3ccc(OC)cc3)n2Cc2ccccc2)cc1)C(=O)Nc1cnn(C)c1 (stereo not drawn)
11,< 4.30,COc1ccc(CCc2nnc(-c3ccc(OC(C)C(=O)Nc4cnn(C)c4)cc3)n2Cc2ccccc2)cc1 (stereo not drawn)
12,4.49,CC(C)Cc1nnc(SCc2ccc(C(=O)NC3CCCCC3)cc2)n1Cc1ccccc1
13,5.19,c1ccc(Cn2c(-c3ccc(OC[C@H](C4CCNCC4)n4c(-c5ccccc5)nc5ccccc54)cc3)nc3ccccc32)cc1
